# Source: patent publication US12092575B2, “Measuring method of cell migration using the rate of cell invasion” (MBD Co., Ltd., priority 2021, dated 2024)
# What was measured:
# #1 HNSCC PDC = experiment: Pillar-based spheroid invasion assay of #1 HNSCC PDC; format: cell-based, human; details: #1 HNSCC PDC spheroids, 80 μM of drugs, three days
# A549 cell line = experiment: Pillar-based spheroid invasion assay of A549 cell line
# Experimental: Before using the pillar array, the pillar array and cell-encapsulation apparatus were immersed in 70% ethanol for 30 min for sterilization followed by complete drying at room temperature.
# A549 cells = experiment: Transwell invasion assay (Matrigel-coated membrane); format: cell-based; details: 1 μM docetaxel, 24 h, Matrigel-coated membrane (FIG. 6)
# Experimental: In the present invention, transwell for conventional invasion assay was used. The membrane of the transwell was coated with 100 μl Matrigel (Corning, NY, USA) basement membrane matrix diluted 9-fold. A549 cells (2×10^4 cells/well) were seeded in the insert of the transwell with RPMI media without FBS. 500 μl RPMI media with FBS was filled in the wells to serve as a chemoattractant. After 24 h of cell incubation, migrated cells on the insert were fixed with 95% ethyl alcohol and then stained with 0.5% crystal violet.
# Based on the fluorescence intensity, spheroid was identified, and invasive cells were calculated by subtracting the spheroid area from the total cell area. A549 cells formed a spheroid two days after cell aggregation and incubation. Cells surrounding spheroid migrated for an additional three days of culture. To check the invasiveness of A549 cells, the present inventors conducted invasion assay using Transwell (24-well transwell, Cat. No. 3422, Corning, USA) in no drug and 1 μM Docetaxel.
Structure (SMILES),cell migration/invasion (spheroid morphology) (#1 HNSCC PDC),cell invasion (A549 cell line; A549 spheroids on pillar),size of a single big spheroid (spheroid area) (A549 cell line; A549 spheroids on pillar (FIG. 8)),"total cell area, which means cell viability (A549 cell line; A549 spheroids on pillar, as a function of docetaxel concentration (FIG. 7))","invasion ratio (A549 cell line; A549 spheroids on pillar, docetaxel treated, control 52% (FIG. 9))",invasion of A549 in the Transwell (A549 cells)
"N.N.[Cl][Pt][Cl] [cisplatin, Cisplatin]",effectively inhibited cell migration/invasion,–,–,–,–,–
"CC(=O)O[C@@]12CO[C@@H]1C[C@H](O)[C@@]1(C)C(=O)[C@H](O)C3=C(C)[C@@H](OC(=O)[C@H](O)[C@@H](NC(=O)OC(C)(C)C)c4ccccc4)C[C@@](O)([C@@H](OC(=O)c4ccccc4)[C@H]21)C3(C)C [docetaxel, Docetaxel]",effectively inhibited cell migration/invasion,inhibited cell invasion,reduced the size of a single big spheroid,decreased depending on docetaxel concentration,lower than 35%,inhibited the invasion
"CN[C@@H]1C[C@H]2O[C@@](C)([C@@H]1OC)n1c3ccccc3c3c4c(c5c6ccccc6n2c5c31)C(=O)NC4 [staurosporine, Staurosporine]",effectively inhibited cell migration/invasion,–,–,–,–,–
